Measurements from patent US4730054A, “Imidazole thieno-benzothiepins” (SPOFA, Spojene Podinky Pro Zdravotnickou Vyrobu, priority 1985, dated 1988).
In brackets after ≈: the same amount, converted by molar mass. Values belong to the compound of their own block, whether it stands above or below them.

Legend:
T mentagrophytes = experiment: MIC by standard dilution method in a liquid nutrient medium; format: cell-based; conditions: Trichophyton mentagrophytes, inoculum 10^6 CFU/ml, read-out: Antimycotic Activity (MIC)
Excerpt: (§1) For example, the new compounds were compared in vitro with the known antimycotic agents clotrimazole, miconazole and ketoconazole, in order to determine their minimum inhibitive concentrations (MICs). See, Fromtling, R. A., "Imidazoles as medically important antifungal agents: an overview," 20 Drugs of Today No. 7, 328-331 (1984); Burgess & Bodey, "Clotrimazole," 2 Antimicrobial Agents and Chemotherapy No. 6, 423-6 (1972). […] The test innoculum size was 10^6 CFU/ml for Aspergillus niger and Trichophyton mentagrophytes and 10^4 CFU/ml for Saccharomuces pastorianus and Candida albicans, where CFU is the standard abbreviation for microbial cell counts.

C albicans = experiment: as above; format: cell-based; conditions: Candida albicans, inoculum 10^4 CFU/ml, read-out: Antimycotic Activity (MIC)
Excerpt: as §1

A niger = experiment: as above; format: cell-based; conditions: Aspergillus niger, inoculum 10^6 CFU/ml, read-out: Antimycotic Activity (MIC)
Excerpt: as §1

[1] = test system: clinical strain isolates of pathogenic molds (a total of 16); experiment: Sensitivity of clinical mold strain isolates, dilution method on Sabouraud agar; format: cell-based; conditions: 16 clinical mold strains
Procedure: (§2) The sensitivity of a larger number of clinical strain isolates of pathogenic molds (a total of 16) as well as yeasts and related microorganisms (a total of 21) when exposed to the inventive compounds was determined using the dilution method on Sabouraud agar. Thus, the experimental MIC values for mold strains exposed to Compound Ia were from 0.7 to 100 mg/l.

[2] = test system: pathogenic molds as well as yeasts and related microorganisms; experiment: Effect of addition of serum or blood to the agar test plate on antimycotic effect, Sabouraud agar; format: cell-based; conditions: for effect of addition of serum or blood to the agar test plate: in comparison to the protein-free agar culture values; for potency in the presence of biological protein substances: such as blood constituents
Procedure: as §2

S pastorianus = experiment: MIC by standard dilution method in a liquid nutrient medium; format: cell-based, Saccharomuces pastorianus; conditions: inoculum 10^4 CFU/ml, read-out: Antimycotic Activity (MIC)
Excerpt: as §1

Candida albicans = experiment: Vaginal candidosis induced experimentally in mice, intravaginal administration; format: in vivo, Candida albicans (in mice); conditions: for inhibition of the test culture: ten days
Procedure: The in vivo evaluation of antimycotic activity was performed using a model of vaginal candidosis induced experimentally in mice by Candida albicans. The test substances were administered intravaginally over a period of ten days in the form of homogenized suspensions of appropriately chosen concentrations in a 0.5% aqueous hydroxyethylcellulose solution. The results were evaluated both immediately upon administration and after one and two weeks.

[3] = Standard test for teratogenity; conditions: standard tests
[4] = Chronic (one month) toxicity on intravaginal administration, rat; format: in vivo
[5] = Standard test for vaginal irritation; format: in vivo; conditions: standard tests
[6] = Standard test for mutagenity; conditions: standard tests
[7] = Standard test for dermal irritation; format: in vivo; conditions: standard tests
[8] = Standard test for foetal damage; conditions: standard tests
[9] = test system: about forty pathogenic yeast and mold strains; experiment: MIC in dilution tests on Sabouraud agar, about forty pathogenic yeast and mold strains; format: cell-based
Procedure: The sensitivity of a larger number of clinical strain isolates of pathogenic molds (a total of 16) as well as yeasts and related microorganisms (a total of 21) when exposed to the inventive compounds was determined using the dilution method on Sabouraud agar.

[10] = test system: typical inducers of dermal mycoses; experiment: Antimycotic activity against typical inducers of dermal mycoses compared with clotrimazole and miconazole; format: cell-based
Procedure: (§3) For example, the new compounds were compared in vitro with the known antimycotic agents clotrimazole, miconazole and ketoconazole, in order to determine their minimum inhibitive concentrations (MICs). See, Fromtling, R. A., "Imidazoles as medically important antifungal agents: an overview," 20 Drugs of Today No. 7, 328-331 (1984); Burgess & Bodey, "Clotrimazole," 2 Antimicrobial Agents and Chemotherapy No. 6, 423-6 (1972). MIC values were determined by the standard dilution method in a liquid nutrient medium, primarily with the following yeast and mold species typically used in preliminary antimycotic screening: Saccharomuces pastorianus, Candida albicans, Trichophyton mentagrophytes, and Aspergillus niger. The test innoculum size was 10^6 CFU/ml for Aspergillus niger and Trichophyton mentagrophytes and 10^4 CFU/ml for Saccharomuces pastorianus and Candida albicans, where CFU is the standard abbreviation for microbial cell counts.

[11] = Chronic (one month) toxicity on intravaginal administration, dog; format: in vivo
[12] = Standard test for cancerogenity; conditions: standard tests
[13] = Acute toxicity LD50 in rats p.o.; conditions: for LD50: rat, in vivo, po
Aspergillus strains = experiment: Antimycotic activity against Aspergillus strains compared with clotrimazole and miconazole; format: cell-based
Procedure: as §3

Structure (SMILES): Clc1ccccc1C(c1ccccc1)(c1ccccc1)n1ccnc1 [Clotrimazole]
MIC (T mentagrophytes): 0.03 µg/mL (≈ 0.087 µM) | MIC (C albicans): 0.7 µg/mL (≈ 2.03 µM) | MIC (A niger): 3.1 µg/mL (≈ 8.99 µM) | MIC [1]: 0.01 to 1.5 µg/mL (≈ 0.029 to 4.35 µM) | effect of addition of serum or blood to the agar test plate [2]: diminished the effect of clotrimazole about one third | MIC (S pastorianus): 3.1 µg/mL (≈ 8.99 µM)

Structure (SMILES): c1ccc2c(c1)CSc1sccc1C2n1ccnc1 (centres unmarked) [Compound Ia, 4-(1-imidazolyl)-4,9-dihydrothieno(2,3-c)-2-benzothiepin]
MIC (T mentagrophytes): 1.5 µg/mL (≈ 5.27 µM) | MIC (C albicans): 25 µg/mL (≈ 87.9 µM) | MIC (A niger): 0.7 µg/mL (≈ 2.46 µM) | MIC [1]: 0.7 to 100 µg/mL (≈ 2.46 to 352 µM) | effect of addition of serum or blood to the agar test plate [2]: doubled the effect | potency in the presence of biological protein substances [2]: actually improved | MIC (S pastorianus): 25 µg/mL (≈ 87.9 µM) | prophylactic (preventative) effect (Candida albicans; intravaginal, concentration of 7.5%): significant prophylactic (preventative) effect | inhibition of the test culture (Candida albicans; intravaginal, concentration of 7.5%, therapy starting 24 hours prior to infection): complete inhibition | inhibition of the test culture (Candida albicans; intravaginal, concentration of 7.5%, therapy starting simultaneously with infection): complete inhibition | results when therapy was delayed (Candida albicans; intravaginal, therapy delayed until 24 hours after infection): somewhat less favorable

Structure (SMILES): Clc1ccc2c(c1)C(n1ccnc1)c1ccsc1SC2 (centres unmarked) [Compound Ib, 6-chloro-4-(1-imidazolyl)-4,9-dihydrothieno(2,3-c)-2-benzothiepin]
MIC (T mentagrophytes): 0.03 µg/mL (≈ 0.0941 µM) | MIC (C albicans): 3.1 µg/mL (≈ 9.72 µM) | MIC (A niger): 0.03 µg/mL (≈ 0.0941 µM) | MIC [1]: 0.01 to 1.5 µg/mL (≈ 0.0314 to 4.7 µM) | teratogenity [3]: negative | effect of addition of serum or blood to the agar test plate [2]: had no effect | potency in the presence of biological protein substances [2]: not diminished | chronic (one month) toxicity [4]: negative | vaginal irritation [5]: negative | MIC (S pastorianus): 12.5 µg/mL (≈ 39.2 µM) | mutagenity [6]: negative | dermal irritation [7]: negative | foetal damage [8]: negative | Minimum MIC values [9]: 0.01 to 25 µg/mL | therapeutic effect on vaginal Candida albicans infections (Candida albicans; topical application): beneficial therapeutic effect | level of activity against typical inducers of dermal mycoses [10]: similarly potent level of activity | chronic (one month) toxicity [11]: negative | cancerogenity [12]: negative | LD50 ([13]; LD50, female rats): 1120 mg/kg | LD50 ([13]; LD50, male rats): 1570 mg/kg | toxicity ([13]; rats): only slightly toxic | activity against Aspergillus strains (Aspergillus strains): notably increased activity

Structure (SMILES): Clc1ccc(COC(Cn2ccnc2)c2ccc(Cl)cc2Cl)c(Cl)c1 (centres unmarked) [Miconazole]
MIC (T mentagrophytes): 0.03 µg/mL (≈ 0.0721 µM) | MIC (C albicans): 0.7 µg/mL (≈ 1.68 µM) | MIC (A niger): 1.5 µg/mL (≈ 3.6 µM) | MIC (S pastorianus): 6.2 µg/mL (≈ 14.9 µM)

MIC (T mentagrophytes): 0.7 µg/mL (≈ 1.32 µM) | MIC (C albicans): 0.03 µg/mL (≈ 0.0565 µM) | MIC (A niger): 12.5 µg/mL (≈ 23.5 µM) | MIC (S pastorianus): 50 µg/mL (≈ 94.1 µM)
Structure (SMILES): CC(=O)N1CCN(c2ccc(OCC3COC(Cn4ccnc4)(c4ccc(Cl)cc4Cl)O3)cc2)CC1 (centres unmarked) [Ketoconazole]
